In patent US8008329B2 (Dong Wha Pharmaceutical Co., Ltd., priority 2008, dated 2011):
Marks after values point to notes of the source that are not given here.

Tested on: osteoclast differentiation
Experiment: Osteoclast differentiation in co-culture of mouse bone marrow cells and ST2 cells, TRAP staining (Examples 8-9)
Type: cell-based
Details: for % number of osteoclast (vs. solvent control group): 0.1 μM each, day 7; for activity at 0.1 µM: Mus musculus, Osteoclast, 168 h, Individual treatment (compounds), day 7, read-out: % number of osteoclast (vs. solvent control group)
In short: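 Readout was TRAP-positive multinucleated (≥6 nuclei) cells on day 7, reported as % of 0.1% DMSO control, mean±SD of 4 wells. Cells were mouse (male ddY) bone marrow plus ST2 co-cultures driven by 10^−8 M vitamin D3/dexamethasone. Benzamidines, alendronic acid or risedronic acid were added at 0.1 μM alone or combined, with media renewed days 3 and 5.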

[1] = Combination treatment (alendronic acid + compounds)
[2] = Combination treatment (risedronic acid + compounds)

SMILES	% number of osteoclast (vs. solvent control group) [1]	% number of osteoclast (vs. solvent control group) [2]	activity at 0.1 µM
CCCN(CCC)c1nc(-c2ccc(OCCCCCOc3ccc(C(=N)NO)cc3)cc2)c(CC2CCCC2)s1 [Compound 149, N-hydroxy-4-{5-[4-(5-cyclopentylmethyl-2-dipropylamino-1,3-thiazol-4-yl)phenoxy]pentyloxy}-benzamidine]	40 ± 8.8%	31 ± 2.5^ac %	63 ± 9.9%
CCCCc1sc(N(C)C)nc1-c1ccc(OCCCCCOc2ccc(C(=N)NO)cc2)cc1 [Compound 152, N-hydroxy-4-{5-[4-(5-butyl-2-dimethylamino-1,3-thiazol-4-yl)phenoxy]pentyloxy}-benzamidine]	46 ± 8.8^b %	48 ± 4.9^ac %	65 ± 2.2%
CN(CCN1CCOCC1)c1nc(-c2ccc(OCCCCCOc3ccc(C(=N)NO)cc3)cc2)c(C2CCCC2)s1 [Compound 153, N-hydroxy-4-[5-(4-{5-cyclopentyl-2-[methyl-(2-morpholinoethyl)amino]-1,3-thiazol-4-yl}phenoxy)pentyloxy]-benzamidine]	27 ± 3.5^ab %	22 ± 4.5^ac %	55 ± 3.1%
CCCN(CCC)c1nc(-c2ccc(OCCCCCOc3ccc(C(=N)NO)cc3)cc2)c(C(C)C)s1 [Compound 157, N-hydroxy-4-{5-[4-(5-isopropyl-2-dipropylamino-1,3-thiazol-4-yl)phenoxy]pentyloxy}-benzamidine]	39 ± 8.3^ab %	36 ± 15.1^ac %	78 ± 13.5%
CC(C)c1sc(N(C)C)nc1-c1ccc(OCCCCCOc2ccc(C(=N)NO)cc2)cc1 [Compound 161, N-hydroxy-4-{5-[4-(5-isopropyl-2-dimethylamino-1,3-thiazol-4-yl)phenoxy]pentyloxy}-benzamidine]	56 ± 4.3^ab %	47 ± 14.0^a %	79 ± 5.1%
CCN(CC)c1nc(-c2ccc(OCCCCCOc3ccc(C(=N)NO)cc3)cc2)c(C(C)C)s1 [Compound 162, N-hydroxy-4-{5-[4-(5-isopropyl-2-diethylamino-1,3-thiazol-4-yl)phenoxy]pentyloxy}-benzamidine]	78 ± 1.8%	61 ± 7.5^ac %	98 ± 8.2%
CN(C)c1nc(-c2ccc(OCCCCCOc3ccc(C(=N)NO)cc3)cc2)c(CC2CCCC2)s1 [Compound 163, N-hydroxy-4-{5-[4-(5-cyclopentylmethyl-2-dimethylamino-1,3-thiazol-4-yl)phenoxy]pentyloxy}-benzamidine]	55 ± 7.6%	41 ± 7.3^ac %	65 ± 8.8%
Cc1sc(N2CCOCC2)nc1-c1ccc(OCCCCCOc2ccc(C(=N)NO)cc2)cc1 [Compound 165, N-hydroxy-4-{5-[4-(5-methyl-2-morpholino-1,3-thiazol-4-yl)phenoxy]pentyloxy}-benzamidine]	29 ± 7.5^ab %	30 ± 3.1^ac %	75 ± 3.8%
CCc1sc(N2CCCCC2)nc1-c1ccc(OCCCCCOc2ccc(C(=N)NO)cc2)cc1 [Compound 166, N-hydroxy-4-{5-[4-(5-ethyl-2-piperidino-1,3-thiazol-4-yl)phenoxy]pentyloxy}-benzamidine]	43 ± 9.4^ab %	35 ± 3.9^ac %	73 ± 4.4%
N=C(NO)c1ccc(OCCCCCOc2ccc(-c3nc(N4CCCCC4)sc3CC3CCCC3)cc2)cc1 [Compound 167, N-hydroxy-4-{5-[4-(5-cyclopentylmethyl-2-piperidino-1,3-thiazol-4-yl)phenoxy]pentyloxy}-benzamidine]	25 ± 1.9^b %	31 ± 7.6^ac %	72 ± 9.8%
N=C(NO)c1ccc(OCCCCCOc2ccc(-c3nc(N4CCOCC4)sc3CC3CCCC3)cc2)cc1 [Compound 168, N-hydroxy-4-{5-[4-(5-cyclopentylmethyl-2-morpholino-1,3-thiazol-4-yl)phenoxy]pentyloxy}-benzamidine]	39 ± 5.2^ab %	29 ± 9.7^ac %	70 ± 9.1%
N=C(NO)c1ccc(OCCCCCOc2ccc(-c3nc(N4CCOCC4)sc3C3CCCC3)cc2)cc1 [Compound 172, N-hydroxy-4-{5-[4-(5-cyclopentyl-2-morpholin-4-yl-1,3-thiazol-4-yl)phenoxy]pentyloxy}-benzamidine]	33 ± 5.3^ab %	26 ± 5.1^a %	57 ± 5.1%
CCc1sc(N2CCN(C)CC2)nc1-c1ccc(OCCCCCOc2ccc(C(=N)NO)cc2)cc1 [Compound 174, N-hydroxy-4-{5-(4-[5-ethyl-2-(4-methylpiperazino)-1,3-thiazol-4-yl]phenoxy)pentyloxy}-benzamidine]	46 ± 2.6^ab %	35 ± 5.1^ac %	70 ± 2.5%
Cc1nc(-c2ccc(OCCCCCNc3ccc(C(=N)NO)cc3)cc2)c(C(C)C)s1 [Compound 177, N-hydroxy-4-{5-[4-(5-isopropyl-2-methyl-1,3-thiazol-4-yl)-phenoxy]-pentylamino}-benzamidine]	34 ± 10.2^ab %	34 ± 5.7^ac %	74 ± 10.1%
Cc1nc(-c2ccc(OCCCCC(=O)Nc3ccc(C(=N)NO)cc3)cc2)c(C(C)C)s1 [Compound 182, N-hydroxy-4-{5-[4-(5-isopropyl-2-methyl-1,3-thiazol-4-yl)-phenoxy]-pentanoyl-amino}-benzamidine]	45 ± 6.7%	41 ± 5.1^c %	82 ± 12%
Cc1nc(-c2ccc(OCCCCCN(C)c3ccc(C(=N)NO)cc3)cc2)c(C(C)C)s1 [Compound 183, N-hydroxy-4-({5-[4-(5-isopropyl-2-methyl-1,3-thiazol-4-yl)-phenoxy]-pentyl}-methyl-amino)-benzamidine]	26 ± 6.1^ab %	37 ± 5.3^ac %	66 ± 7.4%
Cc1nc(-c2ccc(OCC=CCOc3ccc(C(=N)NO)cc3)cc2)c(C(C)C)s1 [Compound 184, N-hydroxy-4-{4-[4-(5-isopropyl-2-methyl-1,3-thiazol-4-yl)-phenoxy]-but-2-enyloxy}-benzamidine]	38 ± 3.7^ab %	38 ± 6.9^ac %	62 ± 4.6%
Cc1nc(-c2ccc(OCc3ccc(COc4ccc(C(=N)NO)cc4)cc3)cc2)c(C(C)C)s1 [Compound 185, N-hydroxy-4-{4-[4-(5-isopropyl-2-methyl-1,3-thiazol-4-yl)-phenoxymethyl]-benzyloxy}-benzamidine]	57 ± 13.9%	45 ± 1.4^ac %	81 ± 7%
Cc1nc(-c2ccc(OCCCCCOc3ccc(C(=N)NO)c(O)c3)cc2)c(C(C)C)s1 [Compound 188, 2,N-dihydroxy-4-{5-[4-(5-isopropyl-2-methyl-1,3-thiazol-4-yl)-phenoxy]-pentyloxy}-benzamidine]	35 ± 3.2^ab %	23 ± 5.1^ac %	56 ± 5.4%
Cc1nc(-c2ccc(OCCCOc3ccc(C(=N)NO)cc3)cc2)c(C(C)C)s1 [Compound 193, N-hydroxy-4-{3-[4-(5-isopropyl-2-methyl-1,3-thiazol-4-yl)phenoxy]propoxy}-benzamidine]	34 ± 5.0^ab %	27 ± 4.8^ac %	48 ± 4.4%
Cc1nc(-c2ccc(OCCCCOc3ccc(C(=N)NO)cc3)cc2)c(C(C)C)s1 [Compound 194, N-hydroxy-4-{4-[4-(5-isopropyl-2-methyl-1,3-thiazol-4-yl)phenoxy]butoxy}-benzamidine]	33 ± 7.1^ab %	30 ± 7.0^ac %	74 ± 10.1%
CCc1sc(C2CCCCC2)nc1-c1ccc(OCCCCOc2ccc(C(=N)NO)cc2)cc1 [Compound 196, N-hydroxy-4-{4-[4-(2-cyclohexyl-5-ethyl-thiazol-4-yl)-phenoxy]-butoxy}-benzamidine]	37 ± 4.6^ab %	42 ± 8.8^ac %	68 ± 7.1%
Cc1nc(-c2ccc(OCc3ccccc3COc3ccc(C(=N)NO)cc3)cc2)c(C(C)C)s1 [Compound 208, N-hydroxy-4-{2-[4-(5-isopropyl-2-methyl-thiazol-4-yl)-phenoxymethyl]-benzyloxy}-benzamidine]	75 ± 6.3%	67 ± 6.5^ac %	92 ± 5.8%
Cc1nc(-c2ccc(OCc3cccc(COc4ccc(C(=N)NO)cc4)c3)cc2)c(C(C)C)s1 [Compound 209, N-hydroxy-4-{3-[4-(5-isopropyl-2-methyl-thiazol-4-yl)-phenoxymethyl]-benzyloxy}-benzamidine]	41 ± 12.0^ab %	50 ± 6.1^ac %	74 ± 7.4%
Cc1nc(-c2ccc(OCCCCCOc3ccc(C(=N)NO)cc3)cc2)c(CCN2CCCCC2)s1 [Compound 216, N-hydroxy-4-(5-{4-[2-methyl-5-(2-piperidin-1-yl-ethyl)-thiazol-4-yl]-phenoxy}-pentyloxy)-benzamidine]	72 ± 13.0%	48 ± 7.8^ac %	70 ± 5%
